This is an account of results in patent publication EP0385663B1, “Heterocyclic cycloalkanes as inhibitors of 5-lipoxygenase” (ZENECA LIMITED, priority 1989, dated 1990).

The subject of one experiment is 5-LO. The experiment in a line: Test c): ex vivo assay, compound administered, blood collected, A23187 challenge, LTB₄ radioimmunoassay. It is filed as in vivo. As for the experimental part:
(§1) As stated previously, the heterocyclic cycloalkanes of the formula I are inhibitors of the enzyme 5-LO. […] This test provides a measure of the intrinsic inhibitory properties against soluble 5-LO in an extracellular environment. • b) An in vitro assay system involving incubating a test compound with heparinised human blood, prior to challenge with the calcium ionophore A23187 and then indirectly measuring the inhibitory effects on 5-LO by assaying the amount of LTB₄ using the specific radioimmunoassay described by Carey and Forder (F. Carey and R.A. Forder, Brit. […] The effects of a test compound on the enzyme cyclooxygenase (which is involved in the alternative metabolic pathway for arachidonic acid and gives rise to prostaglandins, thromboxanes and related metabolites) may be measured at the same time using the specific radioimmunoassay for thromboxane B₂(TxB₂) described by Carey and Forder (see above). […] It permits the selectivity of the inhibitory effect on 5-LO or cyclooxygenase to be assessed. • c) An ex vivo assay system, which is a variation of test b) above, involving administration of a test compound (usually orally as the suspension produced when a solution of the test compound in dimethylsulphoxide is added to carboxymethylcellulose), blood collection, heparinisation, challenge with A23187 and radioimmunoassay of LTB₄ and TxB₂. […]

The target of another experiment is T1, cyclooxygenase (Homo sapiens, UniProt P23219).
T1 construct: incubating a test compound with heparinised human blood; endogenous in cells; host or cells: blood cells (platelets) in heparinised human whole blood
T1 sequence (P23219 24-599): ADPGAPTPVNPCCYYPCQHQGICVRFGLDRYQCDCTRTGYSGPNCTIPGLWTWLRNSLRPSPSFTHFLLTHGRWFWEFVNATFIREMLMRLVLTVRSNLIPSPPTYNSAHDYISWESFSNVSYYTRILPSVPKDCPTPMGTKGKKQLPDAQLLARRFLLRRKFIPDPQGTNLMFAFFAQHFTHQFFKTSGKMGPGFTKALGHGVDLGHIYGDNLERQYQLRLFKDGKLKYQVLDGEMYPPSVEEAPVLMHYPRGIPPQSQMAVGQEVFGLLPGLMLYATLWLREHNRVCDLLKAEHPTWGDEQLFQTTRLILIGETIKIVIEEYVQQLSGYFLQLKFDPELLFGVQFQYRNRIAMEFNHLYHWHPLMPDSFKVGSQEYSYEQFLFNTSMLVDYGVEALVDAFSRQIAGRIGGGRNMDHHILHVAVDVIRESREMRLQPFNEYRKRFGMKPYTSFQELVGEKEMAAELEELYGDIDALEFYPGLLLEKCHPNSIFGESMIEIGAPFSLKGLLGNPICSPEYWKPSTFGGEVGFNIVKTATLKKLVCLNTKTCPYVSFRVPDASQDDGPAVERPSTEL
The experiment in a line: Test b): heparinised human blood challenged with A23187, TxB₂ radioimmunoassay. The following applies: read-out: IC₅₀ (TxB₂). It is filed as cell-based. The protocol:
as §1

For `CO[C@@H]1CCC[C@]1(OC)c1cccc(OCC#Cc2ccccn2)c1` (relative stereo) [Example 2, trans-1,2-dimethoxy-1-[3-(3-(2-pyridyl)prop-2-yn-1-yloxy)phenyl]cyclopentane], the “oral ED₅₀(LTB₄)” value with 5-LO is reported as < 100 mg/kg. For the same compound, the IC50 on cyclooxygenase was > 40 µM.
